Reference: the supplement of paper PMC10307832

Key:
Assay in all cases: relative viability (nuclei count vs DMSO), 5 days (fraction); higher = more cells survive
[1] = test system: ChaGo-K-1
Procedure, shortened: (§1)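 Values are medians from duplicate plates. Each reflects relative viability, defined as the nuclei count of treated wells over that of vehicle wells. Lung cancer cell lines in 1536-well plates were pin-tool dosed one day after seeding with one drug alone or with a fixed anchor-drug dose plus five library-drug doses (not always all listed) in √10 steps, then fixed, stained and imaged at 4× after 5 days.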

[2] = test system: EMC-BAC-2
Procedure, shortened: as §1

[3] = test system: EPLC-272H
Procedure, shortened: as §1

[4] = test system: HCC-366
Procedure, shortened: as §1

[5] = test system: HCC-44
Procedure, shortened: as §1

[6] = test system: HCC-78
Procedure, shortened: as §1

[7] = test system: HCC-827
Procedure, shortened: as §1

[8] = test system: LCLC-103H
Procedure, shortened: as §1

[9] = test system: LK-2
Procedure, shortened: as §1

[10] = test system: LOU-NH91
Procedure, shortened: as §1

[11] = test system: LU99A
Procedure, shortened: as §1

[12] = test system: LXF-289
Procedure, shortened: as §1

[13] = test system: NCI-H1666
Procedure, shortened: as §1

[14] = test system: NCI-H1975
Procedure, shortened: as §1

[15] = test system: NCI-H2085
Procedure, shortened: as §1

[16] = test system: NCI-H2126
Procedure, shortened: as §1

[17] = test system: NCI-H23
Procedure, shortened: as §1

[18] = test system: NCI-H2405
Procedure, shortened: as §1

[19] = test system: NCI-H3122
Procedure, shortened: as §1

[20] = test system: RERF-LC-KJ
Procedure, shortened: as §1

[21] = test system: SK-LU-1
Procedure, shortened: as §1

[22] = test system: SW 1573
Procedure, shortened: as §1

[23] = test system: SW 900
Procedure, shortened: as §1

For `Clc1ccc(Nc2nnc(Cc3ccncc3)c3ccccc23)cc1` [Vatalanib] + Nc1ncn([C@H]2C[C@H](O)[C@@H](CO)O2)c(=O)n1 [Decitabine] (partner 2 µM), the relative viability ([1]; first compound 0.04 µM) was 0.494, the relative viability ([1]; first compound 0.1265 µM) was 0.52 and the relative viability ([1]; first compound 0.4 µM) was 0.533. It also gave a relative viability ([1]; first compound 1.265 µM) of 0.522, a relative viability ([1]; first compound 4 µM) of 0.527 and a relative viability ([2]; first compound 0.04 µM) of 0.984. The relative viability ([2]; first compound 0.1265 µM) was 0.952, the relative viability ([2]; first compound 0.4 µM) was 0.983 and the relative viability ([2]; first compound 4 µM) was 0.956. It also gave a relative viability ([3]; first compound 0.04 µM) of 0.357, a relative viability ([3]; first compound 0.1265 µM) of 0.342 and a relative viability ([3]; first compound 0.4 µM) of 0.35. The relative viability ([3]; first compound 1.265 µM) was 0.356, the relative viability ([3]; first compound 4 µM) was 0.378 and the relative viability ([4]; first compound 0.04 µM) was 0.328. The relative viability ([4]; first compound 0.1265 µM) was 0.271, the relative viability ([4]; first compound 0.4 µM) was 0.395 and the relative viability ([4]; first compound 1.265 µM) was 0.312. For the same compound, the relative viability ([4]; first compound 4 µM) was 0.348, the relative viability ([5]; first compound 0.04 µM) was 0.961 and the relative viability ([5]; first compound 0.1265 µM) was 0.944. For the same compound, the relative viability ([5]; first compound 0.4 µM) was 0.976, the relative viability ([5]; first compound 1.265 µM) was 0.906 and the relative viability ([5]; first compound 4 µM) was 0.961. For the same compound, the relative viability ([6]; first compound 0.04 µM) was 0.744, the relative viability ([6]; first compound 0.1265 µM) was 0.723 and the relative viability ([6]; first compound 0.4 µM) was 0.773. It also gave a relative viability ([6]; first compound 1.265 µM) of 0.719, a relative viability ([6]; first compound 4 µM) of 0.684 and a relative viability ([7]; first compound 0.04 µM) of 0.28. The relative viability ([7]; first compound 0.1265 µM) was 0.308, the relative viability ([7]; first compound 1.265 µM) was 0.266 and the relative viability ([7]; first compound 4 µM) was 0.343. For the same compound, the relative viability ([8]; first compound 0.04 µM) was 0.715, the relative viability ([8]; first compound 0.1265 µM) was 0.722 and the relative viability ([8]; first compound 0.4 µM) was 0.759. It also gave a relative viability ([8]; first compound 1.265 µM) of 0.71, a relative viability ([8]; first compound 4 µM) of 0.725 and a relative viability ([9]; first compound 0.04 µM) of 0.242. The relative viability ([9]; first compound 0.1265 µM) was 0.25, the relative viability ([9]; first compound 0.4 µM) was 0.297 and the relative viability ([9]; first compound 1.265 µM) was 0.266. The relative viability ([9]; first compound 4 µM) was 0.319, the relative viability ([10]; first compound 0.04 µM) was 0.766 and the relative viability ([10]; first compound 0.1265 µM) was 0.81. The relative viability ([10]; first compound 0.4 µM) was 0.766, the relative viability ([10]; first compound 1.265 µM) was 0.824 and the relative viability ([10]; first compound 4 µM) was 0.823. For the same compound, the relative viability ([11]; first compound 0.04 µM) was 0.835, the relative viability ([11]; first compound 0.1265 µM) was 0.842 and the relative viability ([11]; first compound 0.4 µM) was 0.962. For the same compound, the relative viability ([11]; first compound 1.265 µM) was 0.868, the relative viability ([11]; first compound 4 µM) was 0.84 and the relative viability ([12]; first compound 0.04 µM) was 0.368. The relative viability ([12]; first compound 0.1265 µM) was 0.38, the relative viability ([12]; first compound 0.4 µM) was 0.445 and the relative viability ([12]; first compound 1.265 µM) was 0.361. For the same compound, the relative viability ([12]; first compound 4 µM) was 0.352, the relative viability ([13]; first compound 0.04 µM) was 0.649 and the relative viability ([13]; first compound 0.1265 µM) was 0.755. The relative viability ([13]; first compound 0.4 µM) was 0.593, the relative viability ([13]; first compound 1.265 µM) was 0.672 and the relative viability ([13]; first compound 4 µM) was 0.785. It also gave a relative viability ([14]; first compound 0.04 µM) of 0.423, a relative viability ([14]; first compound 0.1265 µM) of 0.378 and a relative viability ([14]; first compound 0.4 µM) of 0.401. For the same compound, the relative viability ([14]; first compound 1.265 µM) was 0.391, the relative viability ([14]; first compound 4 µM) was 0.397 and the relative viability ([15]; first compound 0.04 µM) was 0.556. For the same compound, the relative viability ([15]; first compound 0.1265 µM) was 0.552, the relative viability ([15]; first compound 0.4 µM) was 0.476 and the relative viability ([15]; first compound 1.265 µM) was 0.52. The relative viability ([15]; first compound 4 µM) was 0.527, the relative viability ([16]; first compound 0.04 µM) was 0.514 and the relative viability ([16]; first compound 0.1265 µM) was 0.534. It also gave a relative viability ([16]; first compound 0.4 µM) of 0.594, a relative viability ([16]; first compound 1.265 µM) of 0.565 and a relative viability ([16]; first compound 4 µM) of 0.634. For the same compound, the relative viability ([17]; first compound 0.04 µM) was 0.355, the relative viability ([17]; first compound 0.1265 µM) was 0.324 and the relative viability ([17]; first compound 0.4 µM) was 0.314. For the same compound, the relative viability ([17]; first compound 1.265 µM) was 0.291, the relative viability ([17]; first compound 4 µM) was 0.348 and the relative viability ([18]; first compound 0.04 µM) was 0.725. The relative viability ([18]; first compound 0.1265 µM) was 0.744, the relative viability ([18]; first compound 0.4 µM) was 0.866 and the relative viability ([18]; first compound 4 µM) was 0.732. For the same compound, the relative viability ([19]; first compound 0.04 µM) was 0.411, the relative viability ([19]; first compound 0.1265 µM) was 0.432 and the relative viability ([19]; first compound 0.4 µM) was 0.406. It also gave a relative viability ([19]; first compound 1.265 µM) of 0.438, a relative viability ([19]; first compound 4 µM) of 0.457 and a relative viability ([20]; first compound 0.04 µM) of 0.737. For the same compound, the relative viability ([20]; first compound 0.1265 µM) was 0.739, the relative viability ([20]; first compound 0.4 µM) was 0.866 and the relative viability ([20]; first compound 1.265 µM) was 0.599. The relative viability ([20]; first compound 4 µM) was 0.665, the relative viability ([21]; first compound 0.04 µM) was 0.614 and the relative viability ([21]; first compound 0.1265 µM) was 0.584. It also gave a relative viability ([21]; first compound 0.4 µM) of 0.668, a relative viability ([21]; first compound 1.265 µM) of 0.668 and a relative viability ([21]; first compound 4 µM) of 0.52. For the same compound, the relative viability ([22]; first compound 0.04 µM) was 0.541, the relative viability ([22]; first compound 0.1265 µM) was 0.482 and the relative viability ([22]; first compound 0.4 µM) was 0.39. For the same compound, the relative viability ([22]; first compound 1.265 µM) was 0.455, the relative viability ([22]; first compound 4 µM) was 0.493 and the relative viability ([23]; first compound 0.04 µM) was 0.421. The relative viability ([23]; first compound 0.1265 µM) was 0.457, the relative viability ([23]; first compound 0.4 µM) was 0.447 and the relative viability ([23]; first compound 1.265 µM) was 0.423. For the same compound, the relative viability ([23]; first compound 4 µM) was 0.425.
